Data published in patent US20090253589A1, “Method for Testing Active Compounds” (Nambition GmbH, priority 2006, published 2009).
“Also recorded” adds a separate entry of the source. Like-named read-outs stand apart in the source and are kept apart here. One block for each compound: values may come before it.

Legend:
[1] = biological target: T1, rhodopsin Cys110-Cys187 disulfide bond (Bos taurus, UniProt P02699); assay: SMFS of rhodopsin: ratio of 65 nm (intact Cys110-Cys187 bond) to 95 nm (absent bond) force-distance curves; design: species or system bovine; conditions: for effect on ratio of intact to broken Cys110-Cys187 disulfide bonds (65 nm vs 95 nm rhodopsin): increasing Zn^2+ concentrations, FIG. 4
T1 construct: ROS were purified from fresh bovine retinas as described [33]; from tissue; host or cells: bovine retina, rod outer segment (ROS) disc membranes
T1 sequence (P02699 whole entry): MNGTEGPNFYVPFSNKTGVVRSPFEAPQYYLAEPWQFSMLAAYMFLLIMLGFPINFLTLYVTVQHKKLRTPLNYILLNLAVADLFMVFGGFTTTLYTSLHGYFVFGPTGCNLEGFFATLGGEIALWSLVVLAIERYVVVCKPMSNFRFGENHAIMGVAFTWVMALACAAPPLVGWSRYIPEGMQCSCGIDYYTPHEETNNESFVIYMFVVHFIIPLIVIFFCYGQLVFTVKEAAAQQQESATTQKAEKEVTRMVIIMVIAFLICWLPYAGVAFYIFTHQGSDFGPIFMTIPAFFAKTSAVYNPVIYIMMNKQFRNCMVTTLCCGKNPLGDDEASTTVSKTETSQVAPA
Text: This is due to the fact that the loop not unraveled by SMFS in the Cys110-Cys187 form is unfolded in the 95 nm form.
These force spectra were obtained in substantial absence of zinc, since EDTA was used in the preparation of the ROS disc membranes.
The ratio of the Cys110-Cys187 rhodopsin force-distance curves and the 95 nm rhodopsin force-distance curves was changed in the presence of dithiothreitol and N-ethylmaleimide. The ratio of the 65 nm curves to the 95 nm curves was 1:2 in the presence of dithiothreitol and 7:1 in the presence of N-ethylmaleimide. Dithiothreitol likely disrupts the Cys110-Cys187 disulfide bond, and N-ethylmaleimide alkylates Cys 185. The action of these two compounds likely occurs during the unfolding of rhodopsin, since the residues modified by these reagents are not accessible in the native structure of the protein, as can be judged from the known crystal structure of rhodopsin.
AFM imaging and force spectroscopy were performed as described elsewhere. Disc membranes were adsorbed onto a freshly cleaved mica surface as described previously. For force measurements, the AFM stylus was approached to the Rh surface while applying a constant force of ˜1 nN. After a contact time of ˜0.5-1 s, the stylus was retracted from the membrane surface at a constant velocity of 300 nm/s. All experiments were performed in 150 mM KCl, 25 mM MgCl2, 20 mM Tris, pH 7.8, at room temperature. In experiments where rhodopsin was treated with 1 mM EDTA (Sigma), ZnCl2 (Fisher Scientific), CaCl2, CdCl2, CoCl2, or CuCl2, the buffer was supplemented with the specified amounts of the reagent and the pH adjusted to 7.8. When assayed with 0, 10, 25, 50, 100, 200 and 400 μM ZnCl2, rhodopsin in native ROS disc membranes was diluted in the dilution buffer with the required amount of ZnCl2 and incubated on ice for ˜40 mins—1 h in complete darkness. In the case of other metal ions the sample preparation was carried out in a similar way. In the experiment where 1 mM EDTA was used, 25 mM MgCl2 was not added to the buffer. All dilutions were carried out under dim red light and experiments performed in a completely dark room. Force curves were collected over a period of less than 1 h to prevent bleaching of rhodopsin. The red laser on the AFM promoted minimal bleaching of Rh. ROS membranes solubilized in n-dodecyl-β-D-maltoside were bleached less than 5% after incubation under the AFM laser for 1 hr.
In the first step, the force-distance curves were separated based on their lengths. […] The number of extended amino acid residues at each peak was then calculated using the contour length obtained from the WLC fits. […] To measure the unfolding force and probability of unfolding for each individual structural segment, every event of each curve was analyzed.

rhodopsin [2] = biological target: T2, rhodopsin (Bos taurus, UniProt P02699); assay: Single-molecule force spectroscopy (AFM) unfolding of rhodopsin in native ROS disc membranes: unfolding forces and pathways; design: ROS were purified from fresh bovine retinas as described [33]; from tissue; host or cells: bovine retina, rod outer segment (ROS) disc membranes; species or system bovine
Target sequence in this assay (P02699 whole entry): as above

rhodopsin [3] = biological target: T2, rhodopsin; assay: SMFS cleavage experiment: ROS membranes digested with endoproteinase Glu-C, fraction of curves by length; design: total number of curves obtained from the uncleaved native Rh sample; from tissue; host or cells: bovine retina ROS membranes, treated with endoproteinase Glu-C (Roche Applied Science); species or system bovine
Method: For cleavage experiments, ROS membranes (2 mg/mL) resuspended in Ringer's buffer (10 mM Hepes, 130 mM NaCl, 3.6 mM KCl, 2.4 mM MgCl2, 1.2 mM CaCl2, 0.02 mM EDTA, pH 7.4) were treated with endoproteinase Glu-C (Roche Applied Science, Indianapolis, Ind., USA) at a substrate to enzyme ratio of 10:1 (w/w). Membranes were digested with the enzyme for 2 h at room temperature and 1.5 h on ice. The reaction was terminated by washing membranes three times with Ringer's buffer containing 5 mM benzamidine (1 mL) and one time with buffer A (1 mL). Membranes were resuspended in buffer A for SMFS studies. For solubilization of rhodopsin (Rh), ROS membranes were resuspended in 20 mM BTP, 150 mM NaCl, 1% n-dodecyl-β-D-maltoside, pH 7.4. The membrane suspension was shaken at room temperature for 10 min and then centrifuged to remove insoluble material at 164,000×g for 30 min. Protein concentration was determined using the Bradford Protein Assay Kit from Bio-Rad Laboratories (Hercules, Calif., USA).
As mentioned above the molecule could detach from the AFM stylus during unfolding. Therefore, for the cleavage experiments with endoproteinase Glu-C it is important to be certain that the <40 nm length force-distance curves are mainly from the N-terminal fragment of the molecule and not from the detached molecule. […]
Target sequence in this assay (P02699 whole entry): as above
Target sequence in this assay (P02699 240-341 limits assumed): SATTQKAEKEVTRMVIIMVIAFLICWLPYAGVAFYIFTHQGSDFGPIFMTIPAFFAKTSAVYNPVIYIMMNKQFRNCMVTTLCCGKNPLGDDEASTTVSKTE

[4] = in the presence of N-ethylmaleimide
[5] = 200 μM metal ion in buffer, FIG. 3A
[6] = dark state rhodopsin, native ROS disc membranes

Compound: CCN1C(=O)C=CC1=O [N-ethylmaleimide]
fold increase in the proportion of the 65 nm curves [1, 4]: 3.5 fold | fraction of total rhodopsin molecules that lack the Cys110-Cys187 bond [1, 4]: ⅛

Compound: [Cl][Cd][Cl] [cadmium, CdCl2]
effect on stability of rhodopsin segments (difference in unfolding force relative to 0 μM Zn^2+) (rhodopsin [2]; [5]): destabilize the majority of the segments | effect on stability of rhodopsin segments (difference in unfolding force relative to 0 μM Zn^2+) (rhodopsin [2]; 200 μM metal ion in buffer, FIG. 3A, listed as Cd^2+): destabilize or have no effect on the majority of the segments

effect on stability of rhodopsin segments (difference in unfolding force relative to 0 μM Zn^2+) (rhodopsin [2]; [5]): destabilize the majority of the segments
Compound: [Ca+2].[Cl-].[Cl-] [calcium, CaCl2]
effect on stability of rhodopsin segments (difference in unfolding force relative to 0 μM Zn^2+) (rhodopsin [2]; 200 μM metal ion in buffer, FIG. 3A, listed as Ca^2+): destabilize or have no effect on the majority of the segments

Compound: [Cl-].[Cl-].[Co+2] [cobalt, CoCl2]
effect on stability of rhodopsin segments (difference in unfolding force relative to 0 μM Zn^2+) (rhodopsin [2]): destabilize the majority of the segments; also recorded: destabilize or have no effect on the majority of the segments

effect on the stability of rhodopsin (rhodopsin [2]; 25 mM Mg^2+, FIG. 3B): almost no effect
Compound: [Cl-].[Cl-].[Mg+2] [magnesium, MgCl2]

effect on ratio of intact to broken Cys110-Cys187 disulfide bonds (65 nm vs 95 nm rhodopsin) [1]: favour the level of 65 nm rhodopsin | effect on stability of rhodopsin segments (difference in unfolding force relative to 0 μM Zn^2+) (rhodopsin [2]; [5]): stabilizes most segments of the receptor | zinc concentration above which the stability of rhodopsin increased (rhodopsin [2]; [6]): above 50 μM | zinc concentration giving the highest stability of dark state rhodopsin (rhodopsin [2]; [6]): 200 µM
Compound: [Cl-].[Cl-].[Zn+2] [zinc, ZnCl2]
effect on ratio of intact to broken Cys110-Cys187 disulfide bonds (65 nm vs 95 nm rhodopsin) ([1]; listed as Zn^2+): clearly stabilizes the disulfide bond in a concentration dependent manner | effect on occurrence probabilities of the unfolding pathways (rhodopsin [2]; zinc 10, 25, 50, 100, 200 and 400 μM, other metal ions 200 μM): leads to a change in the occurrence probabilities of the unfolding pathways

Compound: endoproteinase Glu-C: protease (Roche Applied Science) used to digest ROS membranes in cleavage experiments
fraction of short curves (<40 nm) of the total curves (rhodopsin [3]; digested sample (untreated sample 23%)): 55% | fraction of ≈65 nm and ≈95 nm long curves (rhodopsin [3]; enzymatically treated sample): 2%
